Some test systems named below: HL-60(TB) leukemia; IGROV1 ovarian; CCRF-CEM leukemia; SK-MEL-28 melanoma; NCI-H460 lung; UACC-62 melanoma; SK-OV-3 ovarian; LOX IMVI melanoma; NCI-H522 lung; HOP-18 NSCLC; OVCAR-8 ovarian; A549 NSCLC; SF-268 CNS; HOP-62 NSCLC; EKVX NSCLC; NCI-H226 lung; U251 CNS; OVCAR-5 ovarian.
What all share (assay): inhibition of tumour cell growth, NCI panel, 48 h

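These data come from cells grown in 96-well plates and exposed to compound for 48 hours at five concentrations. At the TGI there is no net growth.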

Consider `COC(=O)C(C(=O)Cc1ccccc1[N+](=O)[O-])C(=O)OC`, for which the TGI in the test on HL-60(TB) leukemia, in the test on IGROV1 ovarian, in the test on CCRF-CEM leukemia, with SK-MEL-28 melanoma, in the test on NCI-H460 lung and in the test with UACC-62 melanoma was above 100 µM in each case. For the same compound, the TGI in the test with SK-OV-3 ovarian, in the test on LOX IMVI melanoma, in the test on NCI-H522 lung, in the test on HOP-18 NSCLC, in the test on OVCAR-8 ovarian and in the test on A549 NSCLC was above 100 µM in each case. Further, the TGI in the test on SF-268 CNS, with HOP-62 NSCLC, in the test with EKVX NSCLC and in the test on NCI-H226 lung was above 100 µM each time.

For `C=CN1C(=O)[C@H](Oc2ccccc2)[C@@H]1c1ccccc1`, the TGI in the test on IGROV1 ovarian is above 100 µM; with CCRF-CEM leukemia, above 100 µM; with SK-MEL-28 melanoma, above 100 µM; in the test on NCI-H460 lung it was above 100 µM; in the test with SK-OV-3 ovarian, 78.8 µM; in the test on NCI-H522 lung it was 91.3 µM. For the same compound, the TGI with U251 CNS was above 100 µM; in the test with HOP-18 NSCLC it was above 100 µM; in the test with OVCAR-8 ovarian, 83.6 µM; in the test with A549 NSCLC, 85 µM; with SF-268 CNS, above 100 µM; with OVCAR-5 ovarian, above 100 µM. Besides, the values for the TGI with HOP-62 NSCLC, in the test with EKVX NSCLC and with NCI-H226 lung were 92.2 µM, above 100 µM and above 100 µM, respectively.

For `COc1ccc(/C=C(\C(C)=O)C(=O)Nc2ccccc2)cc1`, the TGI in the test with HL-60(TB) leukemia, in the test with IGROV1 ovarian, in the test on CCRF-CEM leukemia, with SK-MEL-28 melanoma, with NCI-H460 lung and with UACC-62 melanoma was above 100 µM throughout. Moreover, the TGI in the test with SK-OV-3 ovarian, in the test with LOX IMVI melanoma, in the test with NCI-H522 lung, in the test on U251 CNS, in the test with HOP-18 NSCLC and in the test with OVCAR-8 ovarian was above 100 µM throughout. Also, the TGI in the test on A549 NSCLC, in the test with SF-268 CNS, in the test on OVCAR-5 ovarian, with HOP-62 NSCLC, with EKVX NSCLC and with NCI-H226 lung was above 100 µM in each case.

As for `COC(=O)[C@@]1(C)/C(=N/NS(=O)(=O)c2ccc(C)cc2)CCC[C@@H]1C`, the TGI in the test with HL-60(TB) leukemia, with IGROV1 ovarian, in the test on CCRF-CEM leukemia, in the test on SK-MEL-28 melanoma, in the test on NCI-H460 lung and with UACC-62 melanoma was above 100 µM each time. Further, the TGI with SK-OV-3 ovarian is above 100 µM; in the test with LOX IMVI melanoma, 27.5 µM; with NCI-H522 lung, above 100 µM; in the test on U251 CNS it was above 100 µM; with HOP-18 NSCLC, above 100 µM; with OVCAR-8 ovarian, above 100 µM. The TGI in the test on A549 NSCLC, in the test with SF-268 CNS, with OVCAR-5 ovarian, with HOP-62 NSCLC, in the test on EKVX NSCLC and in the test on NCI-H226 lung was above 100 µM in each case.

As to `CC1(C)CC(=O)CC(=Nc2ccc([N+](=O)[O-])cc2)C1`, the TGI with HL-60(TB) leukemia is above 100 µM; in the test on IGROV1 ovarian it was above 100 µM; in the test on CCRF-CEM leukemia, 60.8 µM; with SK-MEL-28 melanoma, above 100 µM; in the test with NCI-H460 lung, above 100 µM; in the test on UACC-62 melanoma, above 100 µM. The TGI is above 100 µM in the test with SK-OV-3 ovarian; 38.8 µM with LOX IMVI melanoma; above 100 µM in the test with NCI-H522 lung; 31.7 µM in the test on U251 CNS; above 100 µM with HOP-18 NSCLC; above 100 µM in the test with OVCAR-8 ovarian. Besides, the TGI in the test with A549 NSCLC, in the test with SF-268 CNS, in the test on OVCAR-5 ovarian, with HOP-62 NSCLC, with EKVX NSCLC and in the test on NCI-H226 lung was above 100 µM throughout.

Take `C=CCC1(CN(C)C)CC/C(=C\c2ccc(Cl)cc2)C1=O` (stereo unspecified): the TGI in the test on HL-60(TB) leukemia is 74.4 µM; in the test on IGROV1 ovarian, above 31.6 µM; in the test on CCRF-CEM leukemia it was 24 µM; in the test on SK-MEL-28 melanoma, above 100 µM; in the test on NCI-H460 lung it was 45.6 µM; in the test on UACC-62 melanoma it was above 100 µM. Moreover, the TGI was above 100 µM in the test on SK-OV-3 ovarian; 52 µM with LOX IMVI melanoma; 41.9 µM in the test on NCI-H522 lung; above 100 µM in the test with U251 CNS; above 100 µM in the test on HOP-18 NSCLC; above 100 µM in the test on OVCAR-8 ovarian. In addition, the TGI in the test with A549 NSCLC, in the test with SF-268 CNS, with OVCAR-5 ovarian, with HOP-62 NSCLC, in the test on EKVX NSCLC and in the test on NCI-H226 lung was above 100 µM throughout.

Consider `CC(Oc1ccc(OCC2CCCCC2)cc1)C(=O)OCC(=O)c1ccc(-c2ccccc2)cc1` (stereo unspecified), for which the TGI in the test on HL-60(TB) leukemia, in the test on IGROV1 ovarian, in the test on CCRF-CEM leukemia, with SK-MEL-28 melanoma, in the test with NCI-H460 lung and in the test on UACC-62 melanoma was above 100 µM in each case. The TGI in the test on SK-OV-3 ovarian, in the test on LOX IMVI melanoma, in the test on NCI-H522 lung, with U251 CNS, in the test on HOP-18 NSCLC and in the test with OVCAR-8 ovarian was above 100 µM throughout. Also, the TGI with A549 NSCLC, in the test on SF-268 CNS and in the test with NCI-H226 lung was above 100 µM in each case.

For the compound `COc1ccc(OC)c(/C=C(/C#N)c2ccccc2)c1`, the TGI in the test on HL-60(TB) leukemia was 19.6 µM; in the test on IGROV1 ovarian it was above 100 µM; in the test on CCRF-CEM leukemia it was 62.1 µM; with SK-MEL-28 melanoma, above 100 µM; in the test on NCI-H460 lung it was above 100 µM; with UACC-62 melanoma it was 35.8 µM. In addition, the TGI in the test with SK-OV-3 ovarian is above 100 µM; with LOX IMVI melanoma, above 100 µM; in the test with NCI-H522 lung, 45.5 µM; in the test with U251 CNS, above 100 µM; in the test with HOP-18 NSCLC, above 100 µM; in the test on OVCAR-8 ovarian, above 100 µM. The TGI with A549 NSCLC, with SF-268 CNS, with OVCAR-5 ovarian, in the test on HOP-62 NSCLC, with EKVX NSCLC and in the test with NCI-H226 lung was above 100 µM in each case.

(Values after PubChem BioAssay (NCI).)
